Experimental data taken from article PMC11090936, “The leukemia inhibitory factor regulates fibroblast growth factor receptor 4 transcription in gastric cancer” (Cellular Oncology, 2023).

Molecular target: T1, LIFR (leukemia inhibitory factor receptor) (Homo sapiens, UniProt P42702)
T1 construct: with LIF
Assay: cell-free AlphaScreen, inhibition of LIF/LIFR binding

T1 sequence (P42702 45-1097): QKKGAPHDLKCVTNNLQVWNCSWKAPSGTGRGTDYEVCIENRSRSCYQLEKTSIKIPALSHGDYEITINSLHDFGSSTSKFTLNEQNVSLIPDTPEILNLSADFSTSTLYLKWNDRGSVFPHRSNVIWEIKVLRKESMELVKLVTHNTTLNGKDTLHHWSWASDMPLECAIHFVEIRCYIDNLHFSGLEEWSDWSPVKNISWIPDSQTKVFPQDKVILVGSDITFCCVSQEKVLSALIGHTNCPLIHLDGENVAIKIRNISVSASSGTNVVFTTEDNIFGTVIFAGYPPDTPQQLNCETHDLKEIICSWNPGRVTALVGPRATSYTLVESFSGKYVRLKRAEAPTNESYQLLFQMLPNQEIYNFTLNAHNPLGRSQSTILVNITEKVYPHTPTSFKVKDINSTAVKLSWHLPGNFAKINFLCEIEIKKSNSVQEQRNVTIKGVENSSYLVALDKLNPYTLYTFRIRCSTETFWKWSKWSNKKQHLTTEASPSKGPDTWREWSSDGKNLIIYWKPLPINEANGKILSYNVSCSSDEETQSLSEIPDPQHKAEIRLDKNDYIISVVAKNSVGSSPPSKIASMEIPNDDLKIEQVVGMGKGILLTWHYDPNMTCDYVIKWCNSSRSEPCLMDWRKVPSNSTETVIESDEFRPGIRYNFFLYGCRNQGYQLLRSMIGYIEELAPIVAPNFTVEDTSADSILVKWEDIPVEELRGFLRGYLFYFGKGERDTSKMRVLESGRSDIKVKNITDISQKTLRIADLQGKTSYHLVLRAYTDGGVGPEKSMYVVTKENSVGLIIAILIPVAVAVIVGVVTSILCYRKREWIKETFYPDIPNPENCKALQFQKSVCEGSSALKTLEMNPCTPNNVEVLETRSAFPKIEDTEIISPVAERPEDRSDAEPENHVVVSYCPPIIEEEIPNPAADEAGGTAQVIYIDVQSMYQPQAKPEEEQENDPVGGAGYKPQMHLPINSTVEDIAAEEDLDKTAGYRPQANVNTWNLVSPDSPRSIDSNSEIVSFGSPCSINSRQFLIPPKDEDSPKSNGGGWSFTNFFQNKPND
T1 sequence (P15018 23-202 partner): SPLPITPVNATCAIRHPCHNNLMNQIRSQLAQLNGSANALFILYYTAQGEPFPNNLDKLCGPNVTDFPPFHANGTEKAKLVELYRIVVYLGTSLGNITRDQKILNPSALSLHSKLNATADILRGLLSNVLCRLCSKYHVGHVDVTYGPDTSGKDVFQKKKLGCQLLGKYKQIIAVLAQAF

IC50: 21.9 ± 2.16 µM
Structure (SMILES): C=CC[C@]1(O)CCC2C3CCC4=CC(=O)CCC4=C3[C@@H](c3ccc(-c4ccccc4)cc3)C[C@@]21C (stereo partly shown) [LRI-201]
